Where “and” joins values, the source holds several entries; their conditions need not be identical. Equal entries are not always repeated. Where two headings read alike, the source gives them in different places. Marks after values point to notes of the source that are not given here. Blank lines part the entries; values can stand above or below the compound they belong to.
Tests used:
[1] = cited from earlier work
[2] = cited from earlier work; for Log P: octanol/water; for Water/octanol partitioning coefficient, Log P: Measured or estimated, from references
[3] = Water/octanol partitioning coefficient, Log P
Description: One such molecular property that is used to predict partitioning potential is the octanol—water partition coefficient; Log P, which is the logarithm of the ratio of the solute concentration in the octanol phase to the solute concentration in the water phase, at a defined temperature.

[4] = Encapsulation of hydrophobic compounds into milk fat globules (loading capacity, encapsulation efficiency); format: physicochemical, bovine; conditions: 10% v/v ethanol, 30 min; for % Encapsulation efficiency / maximal loading capacity (LC): room temperature; for maximal loading capacity (LC): maximal value over 50-2500 μM
Procedure: Raw milk was procured from a local market and stored at 4° C. Milk was used for up to 4 days post purchase. MFGs were separated from raw milk using centrifugal separation following a modified version of the method by Gallier et al. (2010) (12). First, raw milk was diluted with Milli-Q water at 9:1 water to milk, and the solution was centrifuged at 3,000×g for 5 min using a fixed angle centrifuge rotor. Cream was then skimmed off the sides of the centrifuged tubes after discarding the aqueous phase. In order to remove more of the milk serum components, cream was reconstituted in water to reach 4% w/v, and subjected to another step of centrifugation at 3,000×g for 5 min Cream was collected as detailed prior, then reconstituted to 20% w/v in Milli-Q water. All separation steps were completed at room temperature.
Encapsulation of test compounds in MFGs was accomplished by mixing ethanolic stock solution of a compound with 20% w/v cream suspended in water. The mixture was gently inverted several times to mix, then allowed in incubate in the dark.
To test the effect of incubation temperature on the partitioning and encapsulation yield and efficiency, RA was added at 250 μM concentration and was allowed to incubate with MFGs for 30 min at 4, 22, and 40° C.
To quantify the amount of compound encapsulated in MFGs, cream was separated from ethanol-containing aqueous phase via centrifugal separation at 3,000 x g for 5 min. Cream was skimmed and added to methanol at 50 mg/mL and vortexed vigorously for 1 min, then centrifuged at 16,000×g for 10 min. Top layer of methanol was collected and absorbance was measured at appropriate wavelength for each compound. An absorbance blank was prepared following the same encapsulation and separation steps in the absence of compound. λmax in methanol (nm) for each compound is reported in Table 1.
Cream (20% w/v in Milli-Q water) that was separated following the steps in Example 2 was further separated via centrifugation at 3,000×g for 5 min. Fat content in cream was measured using a modified Folch method (13). An additional washing step was incorporated where the chloroform/water interface was washed with 1:1 water/methanol solution.

[5] = AAPH measurement of curcumin oxidative stability; format: physicochemical
Procedure: 100 mg/ml encapsulated oleosome and encapsulated whey protein emulsion were respectively added with 40mM AAPH (Sigma) or water as control. Encapsulated oleosome and whey protein emulsion were then rotated and curcumin was extracted at different time points.

[6] = Loading of curcumin in milk fat globules; format: physicochemical, bovine
Procedure: Raw milk was used within 3-4 days of purchasing during which it was stored at 4° C. MFGs were isolated using a modified form of the method by […] et al. (2010) ^3° . […] Raw cream that was separated following the method stated in Example 31 was used for the quantification of oil content per gram of raw cream. […] The two immiscible phases were separated. […] Chloroform extracts were combined and the solvent was removed under vacuum at room temperature for 24 h. Mass of the isolated lipid from the sample was measured gravimetrically. Measurements were completed in triplicated from independent raw milk samples. […] Incubation was completed in the dark to prevent photodegradation of curcumin. […] Encapsulations measurements were conducted in triplicates. […] The mixture was then vortexed rigorously, followed by centrifugation at 16,000×g for 10 min. […] Curcumin containing samples were kept covered throughout the extraction and measurements steps. The encapsulation efficiency was calculated as follows: where CE is the mass of curcumin extracted from MFGs, and […]. The loading capacity was calculated as follows: where CE is the mass of curcumin extracted from MFGs, and MF is the mass of milk fat in MFGs suspension.

[7] = 200 μg/g added curcumin/cream, 1 v/v % ethanol, 10 min
[8] = 400 μg/g added curcumin/cream, 2 v/v % ethanol, 10 min
[9] = 600 μg/g added curcumin/cream, 3 v/v % ethanol, 10 min
[10] = 1000 μg/g added curcumin/cream, 5 v/v % ethanol, 10 min
[11] = 1600 μg/g added curcumin/cream, 8 v/v % ethanol, 10 min
[12] = 2000 μg/g added curcumin/cream, 10 v/v % ethanol, 10 min

Structure (SMILES): CCOC(=O)C1=C(COCCN)NC(C)=C(C(=O)OC)C1c1ccccc1Cl (stereo not shown) [Amlodipine]
solubility in water (Remarks) [1]: Drug sparingly soluble in water. Special only has 1-month shelf-life.

Structure (SMILES): CC(=O)Oc1ccccc1C(=O)O [Aspirin]
solubility in water (Remarks) [1]: Very water soluble drug-use dispersible tablets

Structure (SMILES): COc1ccccc1OCCNCC(O)COc1cccc2[nH]c3ccccc3c12 (stereo not shown) [Carvedilol]
solubility in water (Remarks) [1]: Drug sparingly soluble in water. Special only has 1-month shelf-life.

Structure (SMILES): O=C1Nc2ccc(Cl)cc2[C@@](C#CC2CC2)(C(F)(F)F)O1 [Efavirenz]
Log P [2]: 3.89-4.46
Waters solubility [1]: 8.55 µg/mL

Structure (SMILES): CCOC(=O)[C@H](CCc1ccccc1)N[C@@H](C)C(=O)N1CCC[C@H]1C(=O)O [Enalapril]
solubility in water (Remarks) [1]: Drug sparingly soluble in water. Crushed tablets suspended in water

logP [3]: ~1.5
% Encapsulation efficiency ([4]; 50 μM added compound): 28.64 ± 5.20%
% Encapsulation efficiency ([4]; 100 μM added compound): 29.16 ± 1.50%
% Encapsulation efficiency ([4]; 150 μM added compound): 30.55 ± 3.76%
% Encapsulation efficiency ([4]; 200 μM added compound): 29.83 ± 2.47%
% Encapsulation efficiency ([4]; 250 μM added compound): 28.41 ± 1.56%
% Encapsulation efficiency ([4]; 500 μM added compound): 15.89 ± 1.42 %
% Encapsulation efficiency ([4]; 1000 μM added compound): 15.16 ± 1.46 %
% Encapsulation efficiency ([4]; 1500 μM added compound): 7.57 ± 0.43 %
% Encapsulation efficiency ([4]; 2000 μM added compound): 14.26 ± 2.77 %
% Encapsulation efficiency ([4]; 2500 μM added compound): 4.49 ± 1.08 %
maximal loading capacity (LC) [4]: 9.77 μg per gram of milk fat
Structure (SMILES): O=c1c(O)c(-c2ccc(O)c(O)c2)oc2cc(O)ccc12 [Fisetin]
Water/octanol partitioning coefficient, Log P [2]: 0.464-2.52 ^(14, 15)

Structure (SMILES): CC(C)(C)NCC(O)COc1cccc2c1CC(O)C(O)C2 (stereo not shown) [Nadolol]
solubility in water (Remarks) [1]: Drug sparingly soluble in water. Special only has 1-month shelf-life.

Structure (SMILES): CC[C@H](C)C(=O)O[C@H]1C[C@H](O)C=C2C=C[C@H](C)[C@H](CC[C@@H](O)C[C@@H](O)CC(=O)O)[C@H]21 [Pravastatin]
solubility in water (Remarks) [1]: Drug freely soluble in water, crushed tablets often dissolved in water.

Structure (SMILES): O.O=c1c(O)c(-c2ccc(O)c(O)c2)oc2cc(O)cc(O)c12 [Quercetin hydrate]
Water/octanol partitioning coefficient, Log P [2]: 1.82-2.075 ^(16, 17)
% Encapsulation efficiency ([4]; 50 μM added compound): 25.27 ± 3.47^ %
% Encapsulation efficiency ([4]; 100 μM added compound): 45.35 ± 8.53 %
% Encapsulation efficiency ([4]; 150 μM added compound): 43.78 ± 4.16 %
% Encapsulation efficiency ([4]; 200 μM added compound): 50.09 ± 3.71 %
% Encapsulation efficiency ([4]; 250 μM added compound): 48.95 ± 3.47 %
% Encapsulation efficiency ([4]; 500 μM added compound): 49.00 ± 1.17 %
% Encapsulation efficiency ([4]; 1000 μM added compound): 12.91 ± 1.78 %
% Encapsulation efficiency ([4]; 1500 μM added compound): 18.38 ± 9.27 %
% Encapsulation efficiency ([4]; 2000 μM added compound): 17.92 ± 4.31 %
% Encapsulation efficiency ([4]; 2500 μM added compound): 13.70 ± 1.30 %
maximal loading capacity (LC) [4]: 12.97 μg per gram of milk fat
encapsulation efficiency (EE %), maximal/overall value ([4]; over tested concentrations): 50%

Structure (SMILES): CCOC(=O)[C@H](CCc1ccccc1)N[C@@H](C)C(=O)N1[C@H](C(=O)O)C[C@@H]2CCC[C@@H]21 [Ramipril]
solubility in water (Remarks) [1]: Drug sparingly soluble in water. Crushed tablets suspended in water

Structure (SMILES): CC(=O)CC(c1ccccc1)c1c(O)c2ccccc2oc1=O (stereo not shown) [Warfarin]
solubility in water (Remarks) [1]: Drug freely soluble in water, crushed tablets often dissolved in water.

curcumin absorbance remaining ([5]; WPI control group (water), at 20 and 24 h): 90%
curcumin absorbance remaining ([5]; WPI, 40mM AAPH): 0.03%
curcumin absorbance remaining ([5]; WPI, 40mM AAPH, 20 h): 22%
curcumin absorbance remaining ([5]; WPI, 40mM AAPH, 24 h): 12%
curcumin absorbance remaining ([5]; oleosome control group (water), within 46 h): above 90%
curcumin absorbance remaining ([5]; oleosome, 40mM AAPH): 42%
curcumin absorbance remaining ([5]; oleosome, 40mM AAPH, 20 h): 76%
curcumin absorbance remaining ([5]; oleosome, 40mM AAPH, 24 h): 68%
increase in encapsulation yield compared to reported loading values in emulsions formed using edible oils [6]: at least 3 folds
EE % [6, 7]: 62.09 ± 1.46%
LC %, curcumin/milk fat [6, 7]: 368 μg/g and 368.11 ± 2.92 ^a μg/g
EE % [6, 8]: 61.17 ± 2.13%
LC %, curcumin/milk fat [6, 8]: 244.69 ± 8.53 ^b μg/g
EE % [6, 9]: 62.10 ± 2.54%
LC %, curcumin/milk fat [6, 9]: 372.60 ± 15.27 ^c μg/g
EE % [6, 10]: 66.56 ± 0.13 %
LC %, curcumin/milk fat [6, 10]: 665.55 ± 1.31 ^d μg/g
EE % [6, 11]: 62.55 ± 0.37%
LC %, curcumin/milk fat [6, 11]: 1000.76 ± 5.97 ^e μg/g
EE % [6, 12]: 59.33 ± 0.73%
EE % range over curcumin and ethanol concentrations ([6]; 200-2000 μg/g of raw cream, 1 to 10% v/v ethanol, 10 min): 59-64%
EE % ([6]; Incubation time 10 min, fixed concentration of curcumin and ethanol): 62.36 ± 1.85%
EE % ([6]; Incubation time 20 min, fixed concentration of curcumin and ethanol): 66.43 ± 4.32%
EE % ([6]; Incubation time 30 min, fixed concentration of curcumin and ethanol): 61.20 ± 1.78%
EE % ([6]; Incubation time 40 min, fixed concentration of curcumin and ethanol): 59.75 ± 2.10%
EE % ([6]; Incubation time 50 min, fixed concentration of curcumin and ethanol): 57.24 ± 0.83 %
EE % ([6]; Incubation time 60 min, fixed concentration of curcumin and ethanol): 64.30 ± 2.42%
curcumin encapsulated per gram of milk fat ([6]; MFGs, simple diffusion): Greater than 1000 μg
Structure (SMILES): COc1cc(/C=C/C(=O)CC(=O)/C=C/c2ccc(O)c(OC)c2)ccc1O [curcumin]
Log P [2]: 4.3
Log P ([2]; listed as Curcumin): approximately 4.3
LC %, curcumin/milk fat [6, 12]: 1186.65±14.63 μg/g and 1186 μg/g and 1186.65 ± 14.63 ^ μg/g

Reference: patent publication US20220175675A1, “ENCAPSULATING MOLECULES IN FAT GLOBULES” (The Regents of the University of California, priority 2019, published 2022)
